Results: patent EP4100520B1, “SYSTEM AND METHOD OF TR[…] STATES INFORMATION, […] MACR[…]” (Beznosiuk, Jaroslaw, priority 2020, dated 2021)

Key:
[1] = target: T1, enolase (Homo sapiens, UniProt P13929); assay: Electrophoresis to detect high molecular weight advanced glycation products (AGE) of enolase; conditions: 3 h glycation
T1 construct: Enolase was isolated from human muscle tissue using own method; from tissue; host or cells: human muscle tissue
Protocol: The glycation process was interrupted after 3 hours by adding an aqueous solution of lysine at a concentration of 4 mg/ml to methylglyoxal samples (excess lysine bound unreacted methylglyoxal).
In order to detect the presence of high molecular weight products of advanced glycation of enolase (AGE), samples of each mixture were electrophoresized. Electrophoresis conditions according to [Pietkiewicz J. et al., 2011, Protein J. 30 (3):149-158]. 12 ug of protein from the analyzed samples was applied to the gel paths.

[2] = target: T2, human muscle enolase (Homo sapiens, UniProt P13929); assay: Enolase glycation with methylglyoxal: specific activity of enolase (absorbance increase at 240 nm, 2-PGA to PEP); format: biochemical; conditions: for K(1)i / K(1)0 / K(1)i / K(2)i: K1, without entanglement elements; for K(1)i / K(1)0 / Wi / W0: activity relative to own initial value; for Wi / W0 / Wi / K(2)i: W, with entanglement elements
T2 construct: Enolase was isolated from human muscle tissue using own method; from tissue; host or cells: human muscle tissue
T2 sequence (P13929 whole entry): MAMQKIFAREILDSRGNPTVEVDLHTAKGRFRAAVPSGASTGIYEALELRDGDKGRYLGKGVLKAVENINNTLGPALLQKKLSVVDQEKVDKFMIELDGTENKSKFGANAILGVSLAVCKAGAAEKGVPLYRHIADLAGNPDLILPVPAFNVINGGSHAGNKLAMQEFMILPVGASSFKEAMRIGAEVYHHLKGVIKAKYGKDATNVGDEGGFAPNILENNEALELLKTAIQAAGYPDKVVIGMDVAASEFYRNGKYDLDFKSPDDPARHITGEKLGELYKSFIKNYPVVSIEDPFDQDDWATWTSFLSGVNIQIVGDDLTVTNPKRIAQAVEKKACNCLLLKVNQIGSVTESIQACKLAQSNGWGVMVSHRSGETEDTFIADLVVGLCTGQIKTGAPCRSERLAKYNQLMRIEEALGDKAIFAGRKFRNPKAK
Protocol: Methylglyoxal was chosen as an enolase modifying agent because it is formed in the body mainly as a product of defective glycolysis or in the lipid peroxidation process, as well as a result of disorders of defence systems against carbonyl and oxidative stress. Simultaneously, enolase glycation was performed without exposure to the second entanglement elements 9, 9a of the second and third pair of entanglement elements. The second control was a sample of enolase that was not glycated and not treated with the second entanglement elements 9, 9a of the second and third pair of entanglement elements.
The second entanglement elements 9, 9a of the second and third pair of entanglement elements were aluminium plates, 1 cm by 2 cm in size, which were kept for 30 min at room temperature prior to testing. Enolase was isolated from human muscle tissue using own method (Bednarz-Misa I, Pietkiewicz J, et al., 2009. Adv.Clin.Exp.Med. Vol.18 no.1; p.71-78). The enzyme stock solution was a preparation of 7.5 mM of imidazole-HCl, pH 6.8, in stabilizing buffer, containing 2.5 mM of MgSO4, 50 mM of NaCl, 50% of glycerol (formulation stored at 4°C). The concentration of enolase in the stock solution Ro was 8 mg/ml (87 µM), while the enzyme specific activity was 25 IU/mg. In glycation mixtures, the enzyme concentration was 1 mg/ml (Ro diluted 8x with PBS buffer, pH 7.4).
In the experiment, a standard test buffer of 50 mM imidazole-HCl pH 6.8.3 mM MgSO4, 0.4M KCI and a substrate of 2-PGA (sodium salt) dissolved in H2O - a stock solution R0 at a concentration of 58.5 mM was used. 2-PGA in the enzyme assay was used at a standard concentration of 1 mM.
Protein concentration was determined spectrophotometrically by measuring the absorbance of enolase solution at 280 nm wavelength using quartz cuvettes. In the present system, quartz cuvettes constituted the end tanks 10 made of polar dielectric 5. Enolase activity was determined by monitoring in a Jasco UV-Vis V-530 spectrophotometer within 60 seconds, the increase in absorbance of the test solution at 240 nm wavelength (a measure of reaction product production, PEP). The specific activity of the enzyme was expressed in international units relative to 1 mg of protein (Bednarz-Misa I, Pietkiewicz J, et al., 2009. Adv.Clin.Exp.Med. 18(1);71-78).
Two glycation systems were prepared using a large excess of methylglyoxal in relation to enolase (ratio 1:300 mol:mol) - in accordance with the conditions according to [Pietkiewicz J. et al., 2011, Protein J. 30 (3):149-158]: • a) Substantive test: glycation of enolase treated with second entanglement elements 9, 9a of the second and third pair of entanglement elements.
175 µl of PBS pH 7.4 buffer were placed in the quartz cuvette, 20 µl of enolase stock solution and 5.5 µl of 0.8% aqueous methylglyoxal solution were added. In such a system, the effect of quantum information transmitted from source medium 2 (silicon monocrystal) on the modification of the glycolysis/gluconeogenesis enzyme enolase by methylglyoxal as a reactive glycating agent was studied.
In order to transmit quantum information from the source medium 2, the mixture was subjected for 3 hours to two second entanglement elements 9, 9a of the second and third pair of entanglement elements (which adhered to both sides of the cuvette). The system was kept at room temperature. b) Control test 1: glycation of enolase not treated with second entanglement elements 9, 9a of the second and third pairs of entanglement elements.
The reaction system was prepared as a substantive test (a). Incubation at room temperature occurred at the same time, without contact with the second entanglement elements 9, 9a of the second and third pair of entanglement elements (3 m distance from the substantive test). c) Control test 2: Unmodified enolase, not treated with second entanglement elements 9, 9a of the second and third pair of entanglement elements. […]

[3] = relative to unmodified enolase control K2 at same time, 1 h
[4] = relative to unmodified enolase control K2 at same time, 2 h
[5] = relative to unmodified enolase control K2 at same time, 3 h

T1 sequence (P13929 whole entry): as above

SMILES: CC(=O)C=O [methylglyoxal]
- AGE of Mw 180 and Mw 230 kDa ([1]; control test, glycation in the absence of entanglement elements (path 2, fig. 6)): observed
- AGE of Mw 180 and Mw 230 kDa ([1]; substantive test treated with entanglement elements (path 1, fig. 6)): observed
- Activity ([2]; Control test 1 (K1): enolase + methylglyoxal (1:300 mol:mol), without entanglement elements, incubation time 0 h, room temperature): 24.6 IU/mg
- Activity ([2]; Control test 1 (K1): enolase + methylglyoxal, without entanglement elements, incubation time 1 h): 21.37 IU/mg
- Activity ([2]; Control test 1 (K1): enolase + methylglyoxal, without entanglement elements, incubation time 2 h): 19.15 IU/mg
- Activity ([2]; Control test 1 (K1): enolase + methylglyoxal, without entanglement elements, incubation time 3 h): 17.64 IU/mg
- K(1)i / K(1)0 ([2]; 0 h): 100%
- K(1)i / K(1)0 ([2]; 1 h): 86.9%
- K(1)i / K(1)0 ([2]; 2 h): 77.85%
- K(1)i / K(1)0 ([2]; 3 h): 71.7%
- K(1)i / K(2)i ([2]; activity relative to unmodified enolase control K2 at same time, 0 h): 99.6%
- K(1)i / K(2)i [2, 3]: 93.8%
- K(1)i / K(2)i [2, 4]: 88.8%
- K(1)i / K(2)i [2, 5]: 90.6%
- Activity ([2]; Substantive test (W): enolase + methylglyoxal + entanglement elements, incubation time 0 h, room temperature): 29.22 IU/mg
- Activity ([2]; Substantive test (W): enolase + methylglyoxal + entanglement elements, incubation time 1 h): 25.78 IU/mg
- Activity ([2]; Substantive test (W): enolase + methylglyoxal + entanglement elements, incubation time 2 h): 24.12 IU/mg
- Activity ([2]; Substantive test (W): enolase + methylglyoxal + entanglement elements, incubation time 3 h): 23.4 IU/mg
- Wi / W0 ([2]; 0 h): 100%
- Wi / W0 ([2]; 1 h): 88.2%
- Wi / W0 ([2]; 2 h): 82.5%
- Wi / W0 ([2]; 3 h): 80.1%
- Wi / K(2)i ([2]; relative to unmodified enolase control K2 at same time, 0 h): 118.3%
- Wi / K(2)i [2, 3]: 113.2%
- Wi / K(2)i [2, 4]: 117.3%
- Wi / K(2)i [2, 5]: 120.1%
- activity of the glycated enzyme relative to unmodified control test ([2]; in the presence of entanglement elements, throughout the experiment (0-3 h)): 113%-120
- decrease in specific activity ([2]; sample K1, after 3 hours of glycation, without entanglement elements): approx. 28%
